Data set [1] deals with T1, bovine pancreatic DNase I (Bos taurus, UniProt P00639). Particulars: cited from earlier work.
Data set [2] deals with T1, bovine pancreatic DNase I. Description: DNase I assay. The data set is classed as biochemical. Particulars: in the absence of Mn007.
For data set [3] the following is noted: stated in the introduction without reference; cited from earlier work.

T1 sequence (P00639 23-282): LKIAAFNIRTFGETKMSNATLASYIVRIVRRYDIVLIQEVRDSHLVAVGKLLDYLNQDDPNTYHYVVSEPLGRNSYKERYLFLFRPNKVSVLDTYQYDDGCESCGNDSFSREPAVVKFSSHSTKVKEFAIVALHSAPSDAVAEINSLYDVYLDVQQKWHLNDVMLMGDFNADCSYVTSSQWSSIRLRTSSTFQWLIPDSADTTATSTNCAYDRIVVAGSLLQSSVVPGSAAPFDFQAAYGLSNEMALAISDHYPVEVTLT

On to `O=C(O)CN(CCN(CC(=O)O)CC(=O)O)CC(=O)O` [EDTA], for which, in data set [1], the “Inhibition of bovine pancreatic DNase I (reported)” value (from here on “Inhibition”) was “reported to inhibit”.
On to `CC(O)COC[C@H]1O[C@@H]2O[C@H]3[C@H](O)[C@@H](O)[C@@H](O[C@H]4[C@H](O)[C@@H](O)[C@@H](O[C@H]5[C@H](O)[C@@H](O)[C@@H](O[C@H]6[C@H](O)[C@@H](O)[C@@H](O[C@H]7[C@H](O)[C@@H](O)[C@@H](O[C@H]8[C@H](O)[C@@H](O)[C@@H](O[C@H]1[C@H](O)[C@H]2O)O[C@@H]8COCC(C)O)O[C@@H]7COCC(C)O)O[C@@H]6COCC(C)O)O[C@@H]5COCC(C)O)O[C@@H]4COCC(C)O)O[C@@H]3COCC(C)O` (stereo partly drawn) [HyβCD, 2-Hydroxypropyl-β-cyclodextrin], for which the “Effect on activity of DNase I” value in data set [2] was “did not affect the activity of DNase I”.
Turning to `CN(C)c1ccc(C(=C2C=CC(=[N+](C)C)C=C2)c2ccc(N(C)C)cc2)cc1` [crystal violet], the Cytotoxicity result in data set [3] is recorded as “show cytotoxicity”. Besides, the “Inhibition” value in data set [1] was “reported to inhibit”.
Turning to actin, the “Inhibition” value in data set [1] is “reported to inhibit”.

These data come from PMC11200219 (JACS Au, 2024).
